Legend:
Assay type in all cases: in vivo, Drosophila melanogaster
Details in all cases: 25° C.
[1] = test system: Hsp26 tTa, tRe Msl-1^Mpu on the 2nd chromosome; test: Recombinant chromosome experiments: parents raised on supplement, progeny on normal food, adults by sex (25, 18 or 29° C.)
Experimental: (§1) 40-45 young females and 20-25 young males raised at 25° C. upon food with the indicated tetracycline supplement were allowed to mate, then transferred to normal (tetracycline-free) food after 3-4 days. These flies were transferred to fresh vials of normal food every day for 12 days, then removed on the 13th day. All the vials were incubated at 25° C. while the progeny developed. The numbers of male and female progeny emerging as adults in each vial were recorded.
(§2) A standard range of additive concentrations were used in the following experiments (0.05-20 μg/ml). […] (=“not done”)
(§3) All the preceding experiments were performed at 25° C., the standard temperature for Drosophila culture. However, the insects in the wild would clearly be exposed to varying temperatures, so we investigated the extent to which the efficiency of the system is affected by temperature. As with the recombinant chromosome experiments, 40-45 young virgin females and 20-25 young males raised at 25° C. upon food with the indicated tetracycline supplement were allowed to mate, then transferred to normal (tetracycline-free) food after 3-4 days. These flies were transferred to fresh vials of normal food every day. The numbers of male and female progeny emerging as adults in each vial were recorded. These experiments were performed at either 18° C. or 29° C.

[2] = test system: Hsp26 tTa, tRe Msl-2^Nopu on the 2nd chromosome; test: as above
Experimental: as §1, §2, §3

[3] = test system: Sxl^pe-tTA, tRE-Msl-2^Nopu on the X chromosome; test: as above
Experimental: as §1, §2, §3

[4] = test system: Sxl^pe-tTA, tRE-Msl-2^Nopu on the third chromosome; test: as above
Experimental: as §1, §2, §3

[5] = test system: Sxl^pe-tTA, tRE-Ras64B^V12 on the X chromosome; test: as above
Experimental: as §1, §2, §3

[6] = test system: Sxl^pe-tTA, tRE-Ras64B^V12 on the third chromosome; test: as above
Experimental: as §1, §2, §3

[7] = test system: Sxlp^e tTa, tRe Msl-1^Mpu on the X chromosome; test: as above
Experimental: as §1, §2, §3

[8] = test system: Yp3 tTa, tRe Msl-2^Nopu on the 2nd chromosome; test: as above
Experimental: as §1, §2, §3

[9] = test system: Yp3 tTa, tRe Msl-1^Mpu on the 2nd chromosome; test: as above
Experimental: as §1
Since there is no meiotic recombination in Drosophila melanogaster males, any of these recombinant chromosomes could be used in a genetic sexing or insect control program, if required.
as §2, §3

[10] = test system: Yp3 tTa, tRe Ras64B^V12 on the 2nd chromosome; test: Recombinant chromosome experiments / maternal transmission of Tc (Table 1): parents raised on supplement, progeny on normal food, adults by sex
Experimental: as §1, §2, §3
We used a strain of Drosophila in which females, but not males, require Tc for viability.
A strain homozygous for second chromosome insertions of both Yp3-tTA and tRe-Ras64B^V12 was tested for the effect of parental dietary Tc. 40-45 young females and 20-25 young males raised at 25° C. upon food with the indicated tetracycline supplement were allowed to mate, then transferred to normal (tetracycline-free) food after 3-4 days. These flies were transferred to fresh vials of normal food every day for 12 days, and then removed on the 13th day. All the vials were incubated at 25° C. while the progeny developed. The total numbers of male and female progeny emerging as adults were recorded.

[11] = test system: Recombinant chromosome stocks; test: Maintenance of stocks on non-antibiotic tetracycline analogues
Experimental: Recombinant chromosome stocks can readily be maintained at 25° C. on epioxytetracycline concentrations of 1 μg/ml or anhydrotetracycline concentrations of 0.1 μg/ml, showing that these non-antibiotic tetracycline analogues are effective in repressing tTA responsive gene expression.
as §2

[12] = parents raised on anhydrotetracycline 0.05 μg/ml
[13] = parents raised on anhydrotetracycline 0.1 μg/ml
[14] = parents raised on anhydrotetracycline 1 μg/ml
[15] = parents raised on anhydrotetracycline 5 μg/ml
[16] = parents raised on anhydrotetracycline 20 μg/ml

For `Cc1c2c(c(O)c3c(O)cccc13)C(=O)[C@]1(O)C(=O)C(C(N)=O)=C(O)[C@@H](N(C)C)[C@@H]1C2` [anhydrotetracycline], which “Female progeny emerging as adults” value [1, 12] is on record?
The value was 0.

And the “Male progeny emerging as adults” value [1, 12]?
The value was 1492.

What about the “Female progeny emerging as adults” value [1, 13] of the same compound?
The value was 0.

And the “Male progeny emerging as adults” value [1, 13]?
Its value is 1426.

And the “Female progeny emerging as adults” value [1, 14]?
The value was 0.

What about the “Male progeny emerging as adults” value [1, 14] of the same compound?
The value was 1418.

What about the “Female progeny emerging as adults” value [1, 15] of the same compound?
The value was 0.

And the “Male progeny emerging as adults” value [1, 15]?
Its value is 1457.

And the “Female progeny emerging as adults” value [1, 16]?
Its value is 8.

What about the “Male progeny emerging as adults” value [1, 16] of the same compound?
The value was 1499.

And the “Female progeny emerging as adults” value [2, 12]?
The value was 0.

And the “Male progeny emerging as adults” value [2, 12]?
Its value is 707.

And the “Female progeny emerging as adults” value [2, 13]?
The value was 0.

And the “Male progeny emerging as adults” value [2, 13]?
Its value is 1457.

What about the “Female progeny emerging as adults” value [2, 14] of the same compound?
Its value is 0.

What about the “Male progeny emerging as adults” value [2, 14] of the same compound?
Its value is 1437.

And the “Female progeny emerging as adults” value [2, 15]?
Its value is 0.

What about the “Male progeny emerging as adults” value [2, 15] of the same compound?
Its value is 773.

And the “Female progeny emerging as adults” value [2, 16]?
The value was 5.

And the “Male progeny emerging as adults” value [2, 16]?
The value was 1447.

And the “Female progeny emerging as adults” value [3, 12]?
Its value is 0.

And the “Male progeny emerging as adults” value [3, 12]?
The value was 1114.

What about the “Female progeny emerging as adults” value [3, 13] of the same compound?
The value was 0.

And the “Male progeny emerging as adults” value [3, 13]?
The value was 1120.

What about the “Female progeny emerging as adults” value [3, 14] of the same compound?
The value was 0.

What about the “Male progeny emerging as adults” value [3, 14] of the same compound?
Its value is 1130.

What about the “Female progeny emerging as adults” value [3, 15] of the same compound?
The value was 0.

And the “Male progeny emerging as adults” value [3, 15]?
Its value is 1148.

What about the “Female progeny emerging as adults” value [3, 16] of the same compound?
Its value is 0.

What about the “Male progeny emerging as adults” value [3, 16] of the same compound?
Its value is 1128.

And the “Female progeny emerging as adults” value [4, 12]?
The value was 0.

And the “Male progeny emerging as adults” value [4, 12]?
The value was 1331.

And the “Female progeny emerging as adults” value [4, 13]?
Its value is 0.

What about the “Male progeny emerging as adults” value [4, 13] of the same compound?
The value was 1431.

And the “Female progeny emerging as adults” value [4, 14]?
Its value is 0.

What about the “Male progeny emerging as adults” value [4, 14] of the same compound?
Its value is 1309.

And the “Female progeny emerging as adults” value [4, 15]?
Its value is 0.

What about the “Male progeny emerging as adults” value [4, 15] of the same compound?
The value was 1359.

And the “Female progeny emerging as adults” value [4, 16]?
The value was 1.

What about the “Male progeny emerging as adults” value [4, 16] of the same compound?
The value was 1362.

What about the “Female progeny emerging as adults” value [5, 12] of the same compound?
Its value is 0.

And the “Male progeny emerging as adults” value [5, 12]?
Its value is 1452.

And the “Female progeny emerging as adults” value [5, 13]?
The value was 0.

And the “Male progeny emerging as adults” value [5, 13]?
Its value is 1528.

And the “Female progeny emerging as adults” value [5, 14]?
Its value is 0.

And the “Male progeny emerging as adults” value [5, 14]?
The value was 1614.

What about the “Female progeny emerging as adults” value [5, 15] of the same compound?
The value was 0.

What about the “Male progeny emerging as adults” value [5, 15] of the same compound?
Its value is 1448.

And the “Female progeny emerging as adults” value [5, 16]?
Its value is 5.

And the “Male progeny emerging as adults” value [5, 16]?
Its value is 1592.

And the “Female progeny emerging as adults” value [6, 12]?
The value was 0.

What about the “Male progeny emerging as adults” value [6, 12] of the same compound?
Its value is 1381.

What about the “Female progeny emerging as adults” value [6, 13] of the same compound?
The value was 0.

And the “Male progeny emerging as adults” value [6, 13]?
The value was 1304.

And the “Female progeny emerging as adults” value [6, 14]?
Its value is 0.

And the “Male progeny emerging as adults” value [6, 14]?
The value was 1121.

What about the “Female progeny emerging as adults” value [6, 15] of the same compound?
Its value is 0.

And the “Male progeny emerging as adults” value [6, 15]?
The value was 1269.

What about the “Female progeny emerging as adults” value [6, 16] of the same compound?
The value was 1.

What about the “Male progeny emerging as adults” value [6, 16] of the same compound?
The value was 1247.

And the “Female progeny emerging as adults” value [7, 12]?
The value was 0.

And the “Male progeny emerging as adults” value [7, 12]?
Its value is 1582.

And the “Female progeny emerging as adults” value [7, 13]?
Its value is 0.

What about the “Male progeny emerging as adults” value [7, 13] of the same compound?
Its value is 1499.

And the “Female progeny emerging as adults” value [7, 14]?
The value was 0.

And the “Male progeny emerging as adults” value [7, 14]?
The value was 1474.

What about the “Female progeny emerging as adults” value [7, 15] of the same compound?
The value was 0.

And the “Male progeny emerging as adults” value [7, 15]?
Its value is 1619.

And the “Female progeny emerging as adults” value [7, 16]?
The value was 5.

And the “Male progeny emerging as adults” value [7, 16]?
Its value is 1533.

What about the “Female progeny emerging as adults” value [8, 12] of the same compound?
The value was 0.

And the “Male progeny emerging as adults” value [8, 12]?
The value was 1316.

What about the “Female progeny emerging as adults” value [8, 13] of the same compound?
Its value is 0.

And the “Male progeny emerging as adults” value [8, 13]?
The value was 1358.

And the “Female progeny emerging as adults” value [8, 14]?
The value was 0.

What about the “Male progeny emerging as adults” value [8, 14] of the same compound?
The value was 1354.

And the “Female progeny emerging as adults” value [8, 15]?
The value was 0.

What about the “Male progeny emerging as adults” value [8, 15] of the same compound?
Its value is 1344.

And the “Female progeny emerging as adults” value [8, 16]?
The value was 1.

And the “Male progeny emerging as adults” value [8, 16]?
Its value is 1312.

What about the “Female progeny emerging as adults” value [9, 12] of the same compound?
The value was 0.

What about the “Male progeny emerging as adults” value [9, 12] of the same compound?
The value was 1339.

What about the “Female progeny emerging as adults” value [9, 13] of the same compound?
Its value is 0.

And the “Male progeny emerging as adults” value [9, 13]?
Its value is 1263.

What about the “Female progeny emerging as adults” value [9, 14] of the same compound?
Its value is 0.

And the “Male progeny emerging as adults” value [9, 14]?
The value was 1265.

And the “Female progeny emerging as adults” value [9, 15]?
Its value is 0.

What about the “Male progeny emerging as adults” value [9, 15] of the same compound?
Its value is 1284.

And the “Female progeny emerging as adults” value [9, 16]?
Its value is 0.

And the “Male progeny emerging as adults” value [9, 16]?
The value was 1297.

What about the “Female progeny emerging as adults” value [10, 12] of the same compound?
The value was 0.

And the “Male progeny emerging as adults” value [10, 12]?
The value was 1449.

What about the “Female progeny emerging as adults” value [10, 13] of the same compound?
Its value is 0.

And the “Male progeny emerging as adults” value [10, 13]?
Its value is 1411.

And the “Female progeny emerging as adults” value [10, 14]?
The value was 0.

And the “Male progeny emerging as adults” value [10, 14]?
Its value is 1397.

And the “Female progeny emerging as adults” value [10, 15]?
The value was 0.

And the “Male progeny emerging as adults” value [10, 15]?
The value was 1430.

What about the “Female progeny emerging as adults” value [10, 16] of the same compound?
The value was 2.

And the “Male progeny emerging as adults” value [10, 16]?
The value was 1428.

And the “concentration on which recombinant chromosome stocks can readily be maintained” value [11]?
The value was 0.1 µg/mL.

What about the “repressing tTA responsive gene expression” value [11] of the same compound?
The value was “effective”.

Source: patent US9125388B2, “Biological control” (Isis Innovation Limited, priority 1999, dated 2015)
